According to article PMC4042574, “Phenolic Lipids Affect the Activity and Conformation of Acetylcholinesterase from Electrophorus electricus (Electric eel)” (Nutrients, 2014):
Where two headings read alike, the source gives them in different places.

Biological target: acetylcholinesterase (AChE) from Electrophorus electricus (electric eel) (Electrophorus electricus, UniProt O42275)
Experiment: Ellman assay, […] nm
Type: biochemical

Chain of acetylcholinesterase (AChE) from Electrophorus electricus (electric eel) (O42275 24-633): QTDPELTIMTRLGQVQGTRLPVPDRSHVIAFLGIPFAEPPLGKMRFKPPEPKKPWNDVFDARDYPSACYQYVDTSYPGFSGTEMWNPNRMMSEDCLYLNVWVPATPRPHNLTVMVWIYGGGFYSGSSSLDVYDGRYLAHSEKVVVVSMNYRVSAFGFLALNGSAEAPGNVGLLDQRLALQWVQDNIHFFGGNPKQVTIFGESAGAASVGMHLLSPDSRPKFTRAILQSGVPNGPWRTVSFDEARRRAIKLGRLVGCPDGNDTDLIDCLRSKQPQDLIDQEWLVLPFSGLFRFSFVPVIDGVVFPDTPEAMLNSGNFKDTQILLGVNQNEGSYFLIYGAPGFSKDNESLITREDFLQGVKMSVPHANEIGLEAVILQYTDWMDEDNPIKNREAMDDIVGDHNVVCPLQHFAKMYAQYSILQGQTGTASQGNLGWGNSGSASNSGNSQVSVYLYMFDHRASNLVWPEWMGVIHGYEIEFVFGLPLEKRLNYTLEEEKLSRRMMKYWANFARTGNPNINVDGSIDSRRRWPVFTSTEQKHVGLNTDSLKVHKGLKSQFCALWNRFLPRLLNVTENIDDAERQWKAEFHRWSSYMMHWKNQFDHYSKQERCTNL

Row | Compound | IC50 [µM] | IC50 (acetylthiocholine iodide (0.476 μM as printed), pH 8.0, 37 °C, 5 min pre-incubation) [µM]
1 | CCCCCCCCCCCCCCCc1cc(O)cc(O)c1 [AR 15:0] | > 94 | 
2 | CCCCCCCCCCCCCCCCCCCc1cc(O)cc(O)c1 [AR 19:0] | 77 ± 1.25 | 
3 | CCCCCCCCCCCCCCCCCCCCCc1cc(O)cc(O)c1 [AR 21:0] | 44 ± 0.47 | 
4 | CCCCCCCCCCCCCCCCCCCCCCCCCc1cc(O)cc(O)c1 [AR 25:0] | 44 ± 4.24 | 
5 | Cardol |  | 3.5 ± 0.2
